The melting point is the temperature, or range, at which the solid turns liquid.

Turning to `Fc1cc(N=C2NCCN2)c(F)c(F)c1F`, the melting point is 141 to 143 °C. The same measure for `Cc1cc(C)n(-c2ccc(N(C)N)nn2)n1`: 93 to 94 °C; for `Cc1nc(Nc2ccccc2)sc1-c1nc2ccccc2c(=O)n1-c1ccccc1Cl`: 228 to 229 °C.

With `O=C(Nc1ccc(N2CCOCC2)cc1)N(C[C@H]1CC[C@H](CN(C(=O)Nc2ccc(N3CCOCC3)cc2)C2CCCCC2)CC1)C1CCCCC1`, the melting point is 156 to 158 °C.

With `Cc1nc2cc(C(C)C)ccc2n1C`, the melting point lay in the range of 130 to 131 °C. The same measure for `COC(CN(C)C(=O)Nc1ccc(Oc2cccc(C(F)(F)F)c2)cc1)OC`: 86 to 88 °C.

Consider `NCCOc1cccc(CC(Nc2cc(-c3ccc(OCc4ccccc4)cc3)ncn2)C(=O)O)c1` (stereo not given), for which the melting point came out at 154 °C. The same measure for `N#CCOc1nsc2ccc(-n3c(=O)cc(C(F)(F)F)[nH]c3=O)cc12`: 254 to 258 °C; for `CCCN1CCCC(c2ccc(OC)c3c2CC(=O)N3)C1` (stereo not given): 120 °C; for `CC(c1ccc(F)c(F)c1)n1ncc(-c2ccc(S(N)(=O)=O)cc2)c(-c2ccc(F)cc2)c1=O` (stereo not given): 214 to 215 °C. The same measure for `CS(=O)(=O)c1ccc(-n2nc(C(F)(F)F)cc2-c2ccc(C#CCCCO)cc2)cc1`: 87 to 90 °C.

In turn, `Nc1ccc(OCc2c(Cl)cccc2Cl)cc1[N+](=O)[O-]` showed a melting point of 155 °C. The same measure for `Brc1ccc2sc3ccccc3c2c1`: 112 to 116 °C; for `ClC1=NC(C2CC2)Nc2cscc21` (stereo not given): 86.5 to 88.5 °C; for `CC(C)(C)OC(=O)Nc1ccoc1C(N)=O`: 140 to 143 °C.

Regarding `COc1ccc(C(=O)c2coc(C(=O)O)cc2=O)cc1`, the melting point fell in the range of 185 to 190 °C.

In the case of `O=C(O)c1ccccc1C(=O)NCc1ccccn1`, the melting point was 140 to 142 °C.

Molecule `O=C1CCc2c1ccc(F)c2F` gave a melting point of 28 to 32 °C. To `Cc1cccc2nc(C(S)c3ncnc4[nH]cnc34)n(-c3ccccc3F)c(=O)c12` (stereo not given) belongs 152 °C; to `Cc1c(F)c(N)nc(-n2cc(C(=O)O)c(=O)c3cc(F)c(F)c(Cl)c32)c1F`, 253 to 257 °C; to `CC(=O)OC(C(=O)O)c1c(C(C)C)cc(C(C)C)cc1C(C)C` (stereo not given), 166 to 169 °C. The same measure for `CC1=NN(c2cc(-c3ccnc(Nc4cccc(Cl)c4)n3)ccn2)C(=O)C1`: 149 to 150 °C; for `O=c1c2c[nH]c3c(c-2nn1-c1ccc(Cl)cc1)COCC3`: 335 to 337 °C; for `Cc1cc(C)c(S(=O)(=O)N[C@@H](CNC(=O)c2ccc3c(cnn3CCc3cc(=O)[nH]c(N)n3)c2)C(=O)O)c(C)c1`: 194 to 195 °C. To `O=C1NC(=O)C2=C1c1c([nH]c3ccccc13)Cc1[nH]c3ccccc3c12` belongs above 350 °C; to `O=C(O)CC1(C(=O)OCc2ccccc2)C(=O)N(Cc2ccc(Cl)c(Cl)c2)C(=O)c2cccn21` (stereo not given), 134 to 136 °C; to `O=C(Nc1ccccc1)C(=O)c1c2n(c3ccccc13)CCNCC2`, 157 to 160 °C.

For `COc1cc2c(cc1-c1cccnc1)-c1c(Cl)c3c(n1CC2)C(=O)N(C(C)(C)C)CCCC3`, the melting point was 190 to 192 °C. The same measure for `NC(=O)c1c(-c2ccccc2)csc1O`: 108 to 110 °C; for `CNc1cc(Sc2ccc(O)cc2)c(N)cc1[N+](=O)[O-]`: 206 °C. Turning to `CCOc1ccc(C=CC(C)=O)cc1OC`, the melting point was 95 to 97 °C. `Cc1ccc(S(=O)(=O)NCCCCOc2ccc(-n3ccnc3)cc2)cc1` gave a melting point of 96 to 98 °C. The same measure for `CNCC1CN(c2c(F)cc3c(=O)c(C(=O)O)cn(-c4ccc(F)cc4F)c3c2F)CCO1` (stereo not given): 224 to 227 °C; for `CC(=O)Nc1c(C(=O)c2ccc(OC(F)(F)F)cc2)[nH]c2cc(Cl)ccc12`: 213 to 214 °C; for `O=C(c1c(F)cccc1F)N1COCN(c2ccc(S(=O)C(F)(C(F)(F)F)C(F)(F)F)cc2F)C1=O` (stereo not given): 40 to 45 °C.

The molecule `CP(=O)(CCC(=O)O)CCC(=O)O` registered a melting point of 172 to 174 °C. The same measure for `O=C1Cc2c(Cl)cccc2Sc2ccc(C(F)(F)F)cc21`: 105 to 108 °C; for `Cc1[nH]c2ccccc2c1CCC(=O)N1CCN(c2ccccc2)CC1`: 120 to 121 °C; for `O=C(O)c1cn(C2CC2)c2nc(N3CCC(n4ccnn4)CC3)c(F)cc2c1=O`: 246 to 248 °C.

On to `O=c1[nH]c2cc(S(=O)c3cccc4cnccc34)c([N+](=O)[O-])cc2s1` (stereo not given), for which the melting point was above 270 °C. The same measure for `Oc1ccc2c(c1)Sc1ccccc1CN2`: 172 to 174 °C; for `COC(=O)C=Cc1cc2c(nc1C)C(=Cc1ccccc1)CCC2`: 121 to 123 °C. The same measure for `CN(Cc1ccc(CCn2cnc3cc(-c4ccc(Cl)cc4)sc3c2=O)cc1)C(=O)CCl`: 162 to 165 °C. To `CCCOc1ccccc1-c1nc2nc(N)ncc2c(=O)[nH]1` belongs 261 to 262 °C; to `CN1CCC[C@H]1COc1ccc(/C=C/C(=O)O)cc1`, 251 °C. Consider `OCC1OC(n2c(Cl)nc3cc(Cl)c(F)cc32)C(O)C1O` (stereo not given), for which the melting point fell in the range of 170 to 172 °C.

Take `COC(CN1CCN(c2ccccc2)CC1)c1ccc(C)nc1` (stereo not given): the melting point was found to be 93 °C.

Take `COc1cc(/C=C/C(=O)CC(=O)c2ccccc2)ccc1O`: the melting point was in the range of 159 to 162 °C.

For `CC(=O)C(C#N)c1cc(Cl)cc(Cl)c1Cl` (stereo not given), the melting point was 134 to 135 °C. The same measure for `Cc1ccc2ccc3c(c2c1)CC(=O)O3`: 170 to 171 °C; for `Cc1cc(C#N)cc(C(=O)Nc2cccc(Cl)c2)n1`: 148 °C; for `CCOC(=O)CN=C(c1ccccc1)c1cc(Cl)ccc1N`: 130 to 135 °C.

Turning to `CCC1CCn2c(nc(-c3ccncn3)cc2=O)N1` (stereo not given), the melting point is 226 to 228 °C.

`CC(C)c1cc2c(cc1O)C(C)(C)CCC2(C)C`: the melting point lay within 79 to 80 °C. To `O=C(NC(=S)c1c(Cl)cccc1Cl)Nc1ccc(Cl)c(Cl)c1` belongs 168 °C; to `O=C(O)CCc1cc2nc(C(F)(F)F)ccc2n1S(=O)(=O)c1ccccc1`, 180 °C; to `COC1=CC2=CCC3C(=CCC4(C)C(=O)CCC34)C2(C)CC1` (stereo not given), 153 °C.

`CCCCCCc1c(C(C)C)nc(C(C)C)c(CO)c1-c1ccc(F)cc1` had a melting point of 93 to 95 °C. The same measure for `Cc1ccc2c3[nH]nc(Cc4ccccc4)c3c(=O)n(-c3ccccc3)c2n1`: 300 to 302 °C; for `Nc1ncc(-c2ccncn2)c(-c2ccco2)n1`: 222 °C. The same measure for `CC1(CNC=O)CC(=O)c2ccccc2O1` (stereo not given): 96 to 98 °C; for `CC(C)c1cccc(C(C)C)c1NC(=O)CO`: 164 to 166 °C. The same measure for `CN=C(NC#N)C1=CC(CF)(CF)Oc2ccc(C(F)(F)C(F)(F)F)cc21`: 178 to 179 °C. Take `CC(=O)c1c(C)nc2c(OCc3c(Cl)ccc(S(=O)(=O)N4CCC[C@H]4C(=O)NCCCNC(=O)c4ccc(C=NN)cc4)c3Cl)cccn12`: the melting point is 158 to 160 °C. The same measure for `C=CCNc1ccc(N)cc1[N+](=O)[O-]`: 80 to 83 °C.
